Assay results taken from PubChem BioAssay AID588662 (The Scripps Research Institute Molecular Screening Center, 2011).
Calls of active or inactive are those of the source.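 How the source made its calls: active means p38 protein level shifted at least 30% from solvent-only control, either down or up; inactive means shift under 30% either way.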

Molecular target: Mitogen-activated protein kinase 14 (Homo sapiens) (UniProt Q16539)
Test: total p38 protein level change, either direction, late-stage follow-up, counter-screen for KLF5 inhibitor project, SW620 cells, chemiluminescent western blot, powder samples (AID 588662)
Details: 24 h, at 10 µM

Chain of Mitogen-activated protein kinase 14 (Homo sapiens) (Q16539 whole entry, looked up): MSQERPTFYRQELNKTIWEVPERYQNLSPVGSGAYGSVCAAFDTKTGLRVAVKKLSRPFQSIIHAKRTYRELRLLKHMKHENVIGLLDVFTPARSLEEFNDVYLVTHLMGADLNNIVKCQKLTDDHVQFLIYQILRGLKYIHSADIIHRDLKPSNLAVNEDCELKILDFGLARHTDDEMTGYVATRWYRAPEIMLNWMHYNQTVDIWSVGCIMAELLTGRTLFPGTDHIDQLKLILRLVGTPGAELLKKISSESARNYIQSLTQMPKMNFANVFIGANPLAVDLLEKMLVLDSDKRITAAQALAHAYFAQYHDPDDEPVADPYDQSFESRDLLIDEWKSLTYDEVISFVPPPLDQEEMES

Compound	inhibition
CN(C(=O)COC(=O)/C=C/c1cccc([N+](=O)[O-])c1)C1CCS(=O)(=O)C1 (stereo not drawn)	-3.03% (inactive)
CN(C(=O)CNC(=O)/C=C/c1cccc(Cl)c1)C1CCS(=O)(=O)CC1	-41.1%
CN(C(=O)CNC(=O)/C=C/c1cccc(Cl)c1)C1CCS(=O)(=O)C1 (stereo not drawn)	1.69% (inactive)
